These results are taken from patent US8119691B2, “Method for treating airway hyper-responsiveness with lipoxin analogs” (National Institutes of Health (NIH), priority 2001, dated 2012).

Assay [1] has as its system OVA sensitized mice. Nature of the assay: Lung histopathology of OVA sensitized and aerosol challenged mice. The format is in vivo, mouse (BALB/c). To be noted: LXa 10 μg; OVA-allergic mice. The method, then: FIG. 2. Lung histopathology from LXa treated mice. Mice were sensitized and aerosol challenged with OVA in the absence (left column) or presence (right column) of LXa (10 μg). Representative (n=3) lung tissue sections (magnifications: ×40 (a,b), ×100 (d), ×200 (c,e) and ×400 (f)) were obtained from formalin-fixed, paraffin-embedded lung tissue, prepared and stained with hematoxylin and eosin. Arrows denote eosinophils; br, bronchus; v, vessel.
Sensitization and challenge protocols. Five to seven week old male BALB/c (Charles River Laboratories, Wilmington, Mass.) or female hCD11b-hALX FvB transgenic mice were housed in isolation cages under viral antibody-free conditions. […] On day 18, 24 h after the last aerosol challenge, airway responsiveness to intravenous methacholine (33-1000 μg/kg) was measured, bilateral bronchoalveolar lavage (BAL) (2 aliquots of 1 ml PBS plus 0.6 mM EDTA) was performed and tissues (whole blood, lungs, mediastinal lymph nodes and spleen) were harvested for histological analysis. Lung resistance (RL) was measured using a sealed constant mass plethysmograph. […] For mice studied using a whole body plethysmograph to assess airway responsiveness (Buxco), each mouse was placed into a chamber and box pressure/time waveform was analyzed to yield the indicator of airflow obstruction, enhanced pause (Penh). […] Readings were initiated at 3 min and continued for 12 min. […]

Assay [2] deals with OVA sensitized and challenged mice. The assay is described as follows: Mediator profile (cytokines, lipid mediators) in BAL fluid by ELISA, OVA sensitized and challenged mice. Type of assay: in vivo, mouse (BALB/c). Particulars: LXa 10 μg i.v. The method, then: FIG. 3. […] Bronchoalveolar lavage fluids were obtained from OVA sensitized and challenged mice. Leukocytes in bronchoalveolar lavage fluid were enumerated and identified after Wright-Giemsa stain (a). Mediator profile of (b) specific cytokines (IL-5, IL-12, IL-13, eotaxin and TNFα), and lipid mediators, including PGE2 (c), LTB4 and cysLT's (d) were determined by ELISA's in materials from control animals and those receiving LXa (10 μg, i.v.). Results are expressed as mean±SEM (n≧6, d≧2). *P<0.05 by Student's t-test compared to control animals.
Sensitization and challenge protocols. Five to seven week old male BALB/c (Charles River Laboratories, Wilmington, Mass.) or female hCD11b-hALX FvB transgenic mice were housed in isolation cages under viral antibody-free conditions. After Harvard Medical Area IRB approval (Protocol #02570), mice were sensitized with intraperitoneal injections of ovalbumin (OVA) (Grade III; Sigma Chemical Co., St. Louis, Mo.) (10 μg) plus 1 mg aluminum hydroxide (ALUM) (J.T. Baker Chemical Co.; Phillipsburg, N.J.) as adjuvant in 0.2 ml PBS on days 0 and 7. On days 14, 15, 16 and 17, the mice received 10 μg/mouse of an analog (ref. 16) of LXA4 (15-epi,16-para-fluoro-phenoxy-LXA4-methyl ester, LXa) or PBS with 1.6 mM CaCl2 and 1.6 mM MgCl2 (0.1 ml) by intravenous injection at least 1 h prior to an aerosol challenge containing either PBS or 6% OVA for 25 min/day. The analog was designed to resist rapid enzymatic inactivation and was based on the structure of the aspirin-triggered 15-epi-LXA4 (ref. 16), which carries its carbon 15 position alcohol in the R configuration or epimeric (R) to native LXA4. On day 18, 24 h after the last aerosol challenge, airway responsiveness to intravenous methacholine (33-1000 μg/kg) was measured, bilateral bronchoalveolar lavage (BAL) (2 aliquots of 1 ml PBS plus 0.6 mM EDTA) was performed and tissues (whole blood, lungs, mediastinal lymph nodes and spleen) were harvested for histological analysis. Lung resistance (RL) was measured using a sealed constant mass plethysmograph. The effective dose of methacholine required to increase RL to 200% of control values was defined as the ED200 and used as an index of airway responsiveness (as in refs. 14, 15). For mice studied using a whole body plethysmograph to assess airway responsiveness (Buxco), each mouse was placed into a chamber and box pressure/time waveform was analyzed to yield the indicator of airflow obstruction, enhanced pause (Penh). PBS or methacholine (100 mg/ml) was given by aerosol through an inlet of the chamber for 4.5 min. Readings were initiated at 3 min and continued for 12 min. Peak and one min average Penh values were determined. Serum total IgE levels were determined by ELISA (Crystal Chem, Chicago, Ill.). In situ hybridization of murine ALX was performed using an anti-sense oligonucleotide probe (534 bp in length) corresponding to nucleic acids +581-+1115 (GenBank Accession No. NM008042) with the assistance of the Dana-Farber/Harvard Cancer Center Pathology Core Facility (under the direction of Dr. Massimo Loda).
Allergen-initiated respiratory inflammation. Measurement of inflammatory mediators was determined in cell-free BAL fluid (2000 g, 10 min) by sensitive and specific ELISA's, in tandem, for interleukin-5 (IL-5), IL-13, eotaxin, tumor necrosis factor (TNFα) (R&D Systems, Minneapolis, Minn.), LTB4, cysteinyl LT, PGE2 (Cayman Chemical Co., Ann Arbor, Mich.), and LXA4 (Neogen, Lexington, Ky.). Cells were resuspended in HBSS, enumerated by hemocytometer, and concentrated onto microscope slides by cytocentrifuge (STATspin) (265 g). Cells were stained with a Wright-Giemsa stain (Sigma Chemical Co.) to determine leukocyte differentials (after counting ≧200 cells).
In general terms: In an ELISA, binding on a coated surface is turned into a signal by an enzyme label.

In assay [3] the test system is OVA sensitized FVB mice. The assay is described as follows: Allergic airway inflammation, BAL leukocyte differentials, comparison with Montelukast (FIG. 7). Set-up: dose or concentration left out as unconfirmed. Particulars: days 14-17, at least 1 h prior to OVA aerosol; BAL day 18. The format is in vivo, mouse (FVB). The source says:
FIG. 7. Depicts regulation of allergic airway inflammation by 15-epi,16-para-fluoro-phenoxy-LXA4-methyl ester in comparison to a commercially available drug (Montelukast) used to treat chronic asthma.
Five to seven week old male FVB (Charles River Laboratories, Wilmington, Mass.) mice were housed in isolation cages under viral antibody-free conditions. After Harvard Medical Area IRB approval (Protocol #02570), mice were sensitized with intraperitoneal injections of ovalbumin (OVA) (Grade III; Sigma Chemical Co., St. Louis, Mo.) (10 mg) plus 1 mg aluminum hydroxide (ALUM) (J. T. Baker Chemical Co.; Phillipsburg, N.J.) as adjuvant in 0.2 ml PBS on days 0 and 7. On days 14, 15, 16 and 17, the mice received an analog of LXA4 (15-epi,16-para-fluoro-phenoxy-LXA4-methyl ester) ([…], 21.7 nmoles), montelukast ([…], 21.7 nmoles) or PBS with 1.6 mM CaCl2 and 1.6 mM MgCl2 (0.1 ml) by intravenous injection at least 1 h prior to an aerosol challenge containing either PBS or 6% OVA for 25 min/day. On day 18, 24 h after the last aerosol challenge, bilateral bronchoalveolar lavage (BAL) (2 aliquots of 1 ml PBS plus 0.6 mM EDTA) was performed. BAL fluids were centrifuged (2000 g, 10 min) and cells were resuspended in HBSS, enumerated by hemocytometer, and concentrated onto microscope slides by cytocentrifuge (STATspin) (265 g). […]

The subject of assay [4] is murine dorsal air pouches. Particulars: murine dorsal air pouches (refs. 7, 16); cited from earlier work.

“Also recorded” adds a separate entry of the source.

Regarding `COC(=O)CCC[C@H](O)[C@H](O)/C=C/C=C/C=C\C=C\[C@H](O)COc1ccc(F)cc1` [LXa, 15-epi,16-para-fluoro-phenoxy-LXA4-methyl ester], the “lung tissue leukocyte infiltration (tissue eosinophils and lymphocytes) and vascular injury” value in assay [1] is given as “significantly reduced leukocyte infiltration”. Besides, in assay [2], the “CysLT's in BAL fluid” value is on record as “decreased”, the “IL-5 in BAL fluid” value is listed as “decreased”, the “IL-12 in BAL fluid” value is “not similarly reduced; also recorded: did not significantly alter IL-12 levels” and the “IL-13 in BAL fluid” value is listed as “decreased”. Besides, in assay [2], the “PGE2 in BAL fluid” value is “decreased”, the “TNF in BAL fluid” value was “not similarly reduced” and the “eotaxin in BAL fluid” value is “decreased”. Besides, the “lymphocyte reduction compared with Montelukast” value in assay [3] was “statistically more effective than Montelukast in terms of lymphocyte reduction”. The “neutrophil accumulation and exudate formation” value in assay [4] is “blocks neutrophil accumulation and exudate formation”.
